Reference: patent publication US9486506B2 (Novo Nordisk A/S, priority 2011, dated 2016)
Numbered stars: 1 amine (or outer) side, 2 acyl side, 3 side chain; on linkers, the order of the positions; unused ones are H or OH. Side chains are listed from the residue outwards. Peptide text beside a SMILES is read from it. * marks the point of attachment. C18 diacid = O=C(O)CCCCCCCCCCCCCCCCC(=O)*; C16 diacid = O=C(O)CCCCCCCCCCCCCCC(=O)*; γGlu = O=C(O)[C@H](CCC(=O)[*:2])N[*:1]; AEEA = NCCOCCOCC(=O)O

Key:
[1] = Assay (X) Chemical stability assessment by RP-UPLC; format: physicochemical; settings: pH 8.15, 14 days at 37° C. vs 5° C., 333 μM
glucagon receptor = biological target: T1, glucagon receptor (Homo sapiens, UniProt P47871); test: Assay (I) Glucagon activity (cAMP biosensor, FLIPR); format: cell-based
T1 construct: expressed in transfected cells
T1 sequence (P47871 26-477): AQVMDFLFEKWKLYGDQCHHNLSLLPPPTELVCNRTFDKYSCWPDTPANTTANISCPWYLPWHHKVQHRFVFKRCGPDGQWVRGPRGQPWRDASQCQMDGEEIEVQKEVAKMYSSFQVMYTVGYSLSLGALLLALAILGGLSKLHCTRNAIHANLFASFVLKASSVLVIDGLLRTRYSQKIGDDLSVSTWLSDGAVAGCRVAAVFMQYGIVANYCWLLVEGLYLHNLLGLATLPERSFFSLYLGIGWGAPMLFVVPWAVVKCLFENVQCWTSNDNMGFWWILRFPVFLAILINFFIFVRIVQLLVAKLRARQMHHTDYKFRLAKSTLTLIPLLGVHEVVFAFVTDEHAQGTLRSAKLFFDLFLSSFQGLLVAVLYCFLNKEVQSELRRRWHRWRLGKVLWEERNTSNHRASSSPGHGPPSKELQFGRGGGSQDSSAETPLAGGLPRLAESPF

## CC[C@H](C)[C@H](NC(=O)[C@H](CC(=O)O)NC(=O)[C@H](CC(C)C)NC(=O)[C@H](Cc1ccc(O)cc1)NC(=O)[C@H](CCCNC(=N)N)NC(=O)[C@H](CO)NC(=O)[C@H](Cc1ccc(O)cc1)NC(=O)[C@H](CC(=O)O)NC(=O)[C@H](CO)NC(=O)[C@@H](NC(=O)[C@H](Cc1ccccc1)NC(=O)[C@@H](NC(=O)CNC(=O)[C@H](CCC(N)=O)NC(=O)[C@H](CO)NC(=O)[C@@H](N)Cc1c[nH]cn1)[C@@H](C)O)[C@@H](C)O)C(=O)N[C@@H](CCCNC(=N)N)C(=O)N[C@@H](CCCNC(=N)N)C(=O)N[C@@H](C)C(=O)N[C@@H](CCC(N)=O)C(=O)N[C@@H](CC(=O)O)C(=O)N[C@@H](Cc1ccccc1)C(=O)N[C@H](C(=O)N[C@@H](CCCCNC(=O)CC[C@H](NC(=O)CC[C@H](NC(=O)COCCOCCNC(=O)COCCOCCNC(=O)CC[C@H](NC(=O)CCCCCCCCCCCCCCCCC(=O)O)C(=O)O)C(=O)O)C(=O)O)C(=O)N[C@@H](Cc1c[nH]c2ccccc12)C(=O)N[C@@H](CC(C)C)C(=O)N[C@@H](CC(C)C)C(=O)N[C@@H](CO)C(=O)N[C@H](C(=O)O)[C@@H](C)O)C(C)C [Example 23, N^ε24-[(4S)-4-carboxy-4-[[(4S)-4-carboxy-4-[[2-[2-[2-[[2-[2-[2-[[(4S)-4-carboxy-4-(17-carboxyheptadecanoylamino)butanoyl]amino]ethoxy]ethoxy]acetyl]amino]ethoxy]ethoxy]acetyl]amino]butanoyl]amino]butanoyl]-[Arg^12,Ile^16,Lys^24,Leu^27,Ser^28]-Glucagon] (H-HSQGTFTSDYSRYLDIRRAQDFVK([γGlu-γGlu-AEEA-AEEA-γGlu-C18 diacid])WLLST-OH)
[1]
  Chemical stability [Purity loss/14 days 37 C.]: 3.1%
Glucagon receptor
  EC50: 1.04 nM

## CC[C@H](C)[C@H](NC(=O)[C@H](CC(=O)O)NC(=O)[C@H](CC(C)C)NC(=O)[C@H](Cc1ccc(O)cc1)NC(=O)[C@H](CCCCN)NC(=O)[C@H](CO)NC(=O)[C@H](Cc1ccc(O)cc1)NC(=O)[C@H](CC(=O)O)NC(=O)[C@H](CO)NC(=O)[C@@H](NC(=O)[C@H](Cc1ccccc1)NC(=O)[C@@H](NC(=O)CNC(=O)[C@H](CCC(N)=O)NC(=O)[C@H](CO)NC(=O)[C@@H](N)Cc1c[nH]cn1)[C@@H](C)O)[C@@H](C)O)C(=O)N[C@@H](CCCNC(=N)N)C(=O)N[C@@H](CCCNC(=N)N)C(=O)N[C@@H](C)C(=O)N[C@@H](CCC(N)=O)C(=O)N[C@@H](CC(=O)O)C(=O)N[C@@H](Cc1ccccc1)C(=O)N[C@H](C(=O)N[C@@H](CCCCNC(=O)CC[C@H](NC(=O)CC[C@H](NC(=O)CC[C@H](NC(=O)CC[C@H](NC(=O)CCCCCCCCCCCCCCCCC(=O)O)C(=O)O)C(=O)O)C(=O)O)C(=O)O)C(=O)N[C@@H](Cc1c[nH]c2ccccc12)C(=O)N[C@@H](CC(C)C)C(=O)N[C@@H](CC(C)C)C(=O)N[C@@H](CO)C(=O)N[C@H](C(=O)O)[C@@H](C)O)C(C)C [Example 79, N^ε24-[(4S)-4-carboxy-4-[[(4S)-4-carboxy-4-[[(4S)-4-carboxy-4-[[(4S)-4-carboxy-4-(17-carboxyheptadecanoylamino)butanoyl]amino]butanoyl]amino]butanoyl]amino]butanoyl]-[Ile16,Lys24,Leu27,Ser28]-Glucagon]
[1]
  Chemical stability [Purity loss/14 days 37 C.]: 3.8%
Glucagon receptor
  EC50: 0.189 nM

## CC(C)C[C@H](NC(=O)[C@H](CC(C)C)NC(=O)[C@H](Cc1c[nH]c2ccccc12)NC(=O)[C@H](CCCCNC(=O)CC[C@H](NC(=O)CC[C@H](NC(=O)COCCOCCNC(=O)COCCOCCNC(=O)CC[C@H](NC(=O)CCCCCCCCCCCCCCCCC(=O)O)C(=O)O)C(=O)O)C(=O)O)NC(=O)[C@@H](NC(=O)[C@H](Cc1ccccc1)NC(=O)[C@H](CC(=O)O)NC(=O)[C@H](CCC(N)=O)NC(=O)[C@H](C)NC(=O)[C@H](CCCNC(=N)N)NC(=O)[C@H](CCCNC(=N)N)NC(=O)[C@H](CC(C)C)NC(=O)[C@H](CC(=O)O)NC(=O)[C@H](CC(C)C)NC(=O)[C@H](Cc1ccc(O)cc1)NC(=O)[C@H](CCCNC(=N)N)NC(=O)[C@H](CO)NC(=O)[C@H](Cc1ccc(O)cc1)NC(=O)[C@H](CC(=O)O)NC(=O)[C@H](CO)NC(=O)[C@@H](NC(=O)[C@H](Cc1ccccc1)NC(=O)[C@@H](NC(=O)CNC(=O)[C@H](CCC(N)=O)NC(=O)[C@H](CO)NC(=O)[C@@H](N)Cc1c[nH]cn1)[C@@H](C)O)[C@@H](C)O)C(C)C)C(=O)N[C@@H](C)C(=O)N[C@H](C(=O)O)[C@@H](C)O [Example 87, N^ε24-[(4S)-4-carboxy-4-[[(4S)-4-carboxy-4-[[2-[2-[2-[[2-[2-[2-[[(4S)-4-carboxy-4-(17-carboxyheptadecanoylamino)butanoyl]amino]ethoxy]ethoxy]acetyl]amino]ethoxy]ethoxy]acetyl]amino]butanoyl]amino]butanoyl]-[Arg12,Leu16,Lys24,Leu27,Ala28]-Glucagon] (H-HSQGTFTSDYSRYLDLRRAQDFVK([γGlu-γGlu-AEEA-AEEA-γGlu-C18 diacid])WLLAT-OH)
[1]
  Chemical stability [Purity loss/14 days 37 C.]: 5.8%
Glucagon receptor
  EC50: 0.253 nM

## CC(C)C[C@H](NC(=O)[C@H](Cc1ccc(O)cc1)NC(=O)[C@H](CCCNC(=N)N)NC(=O)[C@H](CO)NC(=O)[C@H](Cc1ccc(O)cc1)NC(=O)[C@H](CC(=O)O)NC(=O)[C@H](CO)NC(=O)[C@@H](NC(=O)[C@H](Cc1ccccc1)NC(=O)[C@@H](NC(=O)CNC(=O)[C@H](CCC(N)=O)NC(=O)[C@H](CO)NC(=O)[C@@H](N)Cc1c[nH]cn1)[C@@H](C)O)[C@@H](C)O)C(=O)N[C@@H](CC(=O)O)C(=O)N[C@@H](Cc1ccccc1)C(=O)N[C@@H](CCCNC(=N)N)C(=O)N[C@@H](CCCNC(=N)N)C(=O)N[C@@H](C)C(=O)N[C@@H](CCC(N)=O)C(=O)N[C@@H](CC(=O)O)C(=O)N[C@@H](Cc1ccccc1)C(=O)N[C@H](C(=O)N[C@@H](CCCCNC(=O)CC[C@H](NC(=O)CC[C@H](NC(=O)COCCOCCNC(=O)COCCOCCNC(=O)CC[C@H](NC(=O)CCCCCCCCCCCCCCCCC(=O)O)C(=O)O)C(=O)O)C(=O)O)C(=O)N[C@@H](Cc1c[nH]c2ccccc12)C(=O)N[C@@H](CC(C)C)C(=O)N[C@@H](CC(C)C)C(=O)N[C@@H](CO)C(=O)N[C@H](C(=O)O)[C@@H](C)O)C(C)C [Example 17, N^ε24-[(4S)-4-carboxy-4-[[(4S)-4-carboxy-4-[[2-[2-[2-[[2-[2-[2-[[(4S)-4-carboxy-4-(17-carboxyheptadecanoylamino)butanoyl]amino]ethoxy]ethoxy]acetyl]amino]ethoxy]ethoxy]acetyl]amino]butanoyl]amino]butanoyl]-[Arg^12,Phe^16,Lys^24,Leu^27,Ser^28]-Glucagon] (H-HSQGTFTSDYSRYLDFRRAQDFVK([γGlu-γGlu-AEEA-AEEA-γGlu-C18 diacid])WLLST-OH)
[1]
  Chemical stability [Purity loss/14 days 37 C.]: 3.1%
Glucagon receptor
  EC50: 1.64 nM

## CC(C)C[C@H](NC(=O)[C@H](Cc1c[nH]c2ccccc12)NC(=O)[C@H](CCCCNC(=O)CC[C@H](NC(=O)CC[C@H](NC(=O)COCCOCCNC(=O)COCCOCCNC(=O)CC[C@H](NC(=O)CCCCCCCCCCCCCCC(=O)O)C(=O)O)C(=O)O)C(=O)O)NC(=O)[C@@H](NC(=O)[C@H](Cc1ccccc1)NC(=O)[C@H](CC(=O)O)NC(=O)[C@H](CCC(N)=O)NC(=O)[C@H](C)NC(=O)[C@H](CCCNC(=N)N)NC(=O)[C@H](CCCNC(=N)N)NC(=O)[C@@H](NC(=O)[C@H](CC(=O)O)NC(=O)[C@H](CC(C)C)NC(=O)[C@H](Cc1ccc(O)cc1)NC(=O)[C@H](CCCCN)NC(=O)[C@H](CO)NC(=O)[C@H](Cc1ccc(O)cc1)NC(=O)[C@H](CC(=O)O)NC(=O)[C@H](CO)NC(=O)[C@@H](NC(=O)[C@H](Cc1ccccc1)NC(=O)[C@@H](NC(=O)CNC(=O)[C@H](CCC(N)=O)NC(=O)[C@H](CO)NC(=O)[C@@H](N)Cc1c[nH]cn1)[C@@H](C)O)[C@@H](C)O)C(C)C)C(C)C)C(=O)N[C@@H](CC(C)C)C(=O)N[C@@H](CO)C(=O)N[C@H](C(=O)O)[C@@H](C)O [Example 95, N^ε24-[(4S)-4-carboxy-4-[[(4S)-4-carboxy-4-[[2-[2-[2-[[2-[2-[2-[[(4S)-4-carboxy-4-(15-carboxypentadecanoylamino)butanoyl]amino]ethoxy]ethoxy]acetyl]amino]ethoxy]ethoxy]acetyl]amino]butanoyl]amino]butanoyl]-[Val16,Lys24,Leu27,Ser28]-Glucagon] (H-HSQGTFTSDYSKYLDVRRAQDFVK([γGlu-γGlu-AEEA-AEEA-γGlu-C16 diacid])WLLST-OH; N-terminus and C-terminus assumed)
[1]
  Chemical stability [Purity loss/14 days 37 C.]: 5.1%
Glucagon receptor
  EC50: 0.009 nM

## CC(C)C[C@H](NC(=O)[C@H](Cc1ccc(O)cc1)NC(=O)[C@H](CCCCN)NC(=O)[C@H](CO)NC(=O)[C@H](Cc1ccc(O)cc1)NC(=O)[C@H](CC(=O)O)NC(=O)[C@H](CO)NC(=O)[C@@H](NC(=O)[C@H](Cc1ccccc1)NC(=O)[C@@H](NC(=O)CNC(=O)[C@H](CCC(N)=O)NC(=O)[C@H](CO)NC(=O)[C@@H](N)Cc1c[nH]cn1)[C@@H](C)O)[C@@H](C)O)C(=O)N[C@@H](CC(=O)O)C(=O)N[C@@H](C)C(=O)N[C@@H](CCCNC(=N)N)C(=O)N[C@@H](CCCNC(=N)N)C(=O)N[C@@H](C)C(=O)N[C@@H](CCC(N)=O)C(=O)N[C@@H](CC(=O)O)C(=O)N[C@@H](Cc1ccccc1)C(=O)N[C@H](C(=O)N[C@@H](CCCCNC(=O)CC[C@H](NC(=O)CC[C@H](NC(=O)COCCOCCNC(=O)COCCOCCNC(=O)CC[C@H](NC(=O)CCCCCCCCCCCCCCCCC(=O)O)C(=O)O)C(=O)O)C(=O)O)C(=O)N[C@@H](Cc1c[nH]c2ccccc12)C(=O)N[C@@H](CC(C)C)C(=O)N[C@@H](CCC(=O)O)C(=O)N[C@@H](CO)C(=O)N[C@H](C(=O)O)[C@@H](C)O)C(C)C [Example 57, N^ε24-[(4S)-4-carboxy-4-[[(4S)-4-carboxy-4-[[2-[2-[2-[[2-[2-[2-[[(4S)-4-carboxy-4-(17-carboxyheptadecanoylamino)butanoyl]amino]ethoxy]ethoxy]acetyl]amino]ethoxy]ethoxy]acetyl]amino]butanoyl]amino]butanoyl]-[Ala16,Lys24,Glu27,Ser28]-Glucagon]
[1]
  Chemical stability [Purity loss/14 days 37 C.]: 7.9%
Glucagon receptor
  EC50: 0.07 nM
